Common to all, as to test: DTP human tumour cell line panel, 48 h
In test [1] the test system is A549 NSCLC.
The test system of test [2] is 786-0 renal.
For test [3], the system named is SK-MEL-5 melanoma.
Test [4] relates to MDA-MB-231 breast.
Test [5] deals with NCI/ADR-RES ovarian.
Test [6] has as its system MOLT-4 leukemia.
The test system of test [7] is HOP-62 NSCLC.
For test [8], the system named is SF-295 CNS.
Test [9] has as its system MDA-MB-435.
For test [10], the system named is MALME-3M melanoma.

Several values for one entry are separate records, joined by “and”; a condition that tells them apart may be missing. Equal values may be shown once.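 Test compounds were applied to cells in 96-well plates for 48 hours at 5 doses. GI50: concentration for 50% inhibition of growth. TGI: concentration producing complete growth inhibition.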

As for `CCOc1ccccc1/C=N\N=C(N/N=C/c1ccccc1OCC)N/N=C/c1ccccc1OCC`, the GI50 in [1] is 2.65 µM; in test [2], 2.71 µM; in test [3], 1.69 µM; in test [4], 1.73 µM; in [5], 1.7 µM; in test [6] it was 4.69 µM. Also, the GI50 was 1.85 µM in test [7], 2.41 µM in test [8], 3.44 µM in [9] and 5.69 µM in test [10]. The TGI in test [1] was more than 100 µM; in [2], more than 100 µM; in test [3] it was 3.71 µM; in [4], 7.52 µM; in test [5], more than 100 µM; in test [6], more than 100 µM. For the same compound, the TGI in test [7], in test [8], in test [9] and in test [10] was more than 100 µM each time.

With `CCOC(=O)c1c(NN2CCN(CC(F)(F)F)CC2)oc(/C=C2\C=Nc3ncccc32)c1O`, the GI50 in test [1] was 5.2 µM; in [2], 3.13 µM; in test [3], 2.55 µM; in test [4] it was 6.72 µM; in test [5], 19.3 µM; in test [6] it was 2.79 µM. For the same compound, the GI50 is 5.03 µM in test [7], 8.47 µM in test [8], 3.36 µM in [9] and 13 µM in test [10]. Also, the TGI in test [1] stood at 49.1 µM; in test [2], 18.8 µM; in test [3], 10.6 µM; in test [4], 32.4 µM; in [5], 57.8 µM; in [6], 9.37 µM. The TGI in [7] stood at 21.8 µM; in test [8] it was 37.4 µM; in [9], 16.8 µM; in [10], 29.4 µM.

`COC(=O)CCc1n(Cc2ccc3ccccc3c2)c2ccccc2[n+]1Cc1ccc2ccccc2c1`: the GI50 is 2.92 µM in test [1]; 1.14 µM in test [2]; 0.415 µM in [3]; 0.682 µM in test [4]; 18.7 µM in [5]; 1.13 µM in test [6]. For the same compound, the GI50 was 1.66 µM in [7], 1.32 µM in [8], 0.462 µM in test [9] and 1.05 µM in test [10]. Besides, the TGI in test [1] was 11.9 µM; in test [2] it was 2.45 µM; in test [3], 1.56 µM; in test [4] it was 2.19 µM; in [5], 65.1 µM; in test [6], 2.98 µM. The TGI in test [7] turned out to be 3.46 µM; in [8] it was 2.86 µM; in test [9], 1.8 µM; in test [10], 2.63 µM.

Turning to `CCCCCCOC(=O)CC1=C(C)/C(=C/c2[nH]c(-c3ccc[nH]3)cc2OC)N=C1C`, the GI50 in test [1] was 0.361 µM; in test [2] it was 0.0829 µM; in test [4], 0.0336 µM; in test [5] it was 0.135 µM; in test [6], 0.0436 µM; in [7] it was 0.0982 µM. Besides, the GI50 is 0.12 µM in [8], 0.0463 µM in test [9] and 0.345 µM in test [10]. Moreover, the TGI came out at 1.26 µM in test [1]; 1.16 µM in test [2]; 0.626 µM in [4]; 1.33 µM in [5]; 1.46 µM in [6]; 1.15 µM in test [7]. Also, the TGI was 0.466 µM in test [8], 1.12 µM in [9] and 1.44 µM in [10].

Consider `CCNCC(=O)Nc1ccc2c(c1)C(=O)c1ccc(NC(=O)CNCC)cc1C2=O`, for which the TGI in test [1] was found to be 14.6 µM; in test [2], 7.92 µM; in [3] it was 59.3 µM; in [4], 9.88 µM; in [5] it was 28.3 µM; in test [7], 20 µM. Also, the TGI turned out to be 14.2 µM in test [8], 6.18 µM in [9] and 33 µM in test [10].

For the compound `CC(=O)OCC1OC(SC2=N/C(=C\c3ccc(Br)s3)C(=O)N2c2ccccc2)C(OC(C)=O)C(OC(C)=O)C1OC(C)=O` (stereo not given), the GI50 was 17.8 µM and > 100 µM in test [2]; > 100 µM and 37.7 µM in [6]; 86.3 µM and 32.2 µM in test [9]. Besides, the TGI is 55.4 µM and > 100 µM in test [2]; more than 100 µM in test [3]; more than 100 µM in test [4]; more than 100 µM in [5]; more than 100 µM in test [6]; more than 100 µM in [7]. The TGI in test [8], in test [9] and in test [10] was more than 100 µM throughout.

On to `O=Cc1ccc(-c2ccc(-c3nc4ccccc4s3)cc2)o1`, for which the GI50 is more than 100 µM in test [1]; more than 100 µM in test [2]; 96.4 µM in test [3]; 22 µM in test [4]; 97.7 µM in [5]; more than 100 µM in test [6]. In addition, the GI50 in test [7] was more than 100 µM; in test [8], 41.7 µM; in [9], more than 100 µM. Moreover, the TGI in [1] is more than 100 µM; in test [2] it was more than 100 µM; in [3], more than 100 µM; in [4] it was 68.1 µM; in test [5], more than 100 µM; in [6], more than 100 µM. In addition, the TGI in test [7], in test [8] and in [9] was more than 100 µM each time.

As to `OCC1OC(N2C=C(c3nc4ccccc4s3)C3C=CC=CC32)C(O)C(O)C1O` (stereo not given), the GI50 in [1] is 18.7 µM; in test [2], 17.6 µM; in test [3], 12.1 µM; in test [4], 15.4 µM; in test [5] it was more than 50 µM; in test [6], 36.5 µM. Further, the GI50 in test [7] is 20.8 µM; in test [8], 13.4 µM; in test [9], 11.8 µM. Moreover, the TGI in test [1] was more than 50 µM; in [2], more than 50 µM; in test [3], 30.5 µM; in [4] it was more than 50 µM; in test [5] it was more than 50 µM; in [6], more than 50 µM. Moreover, the TGI in test [7] was more than 50 µM; in test [8], 37.9 µM; in test [9], 28.1 µM.

The values are drawn from PubChem BioAssay (NCI).
